Source: patent US12655101B2, “Small molecules with antibacterial activity” (NEW MEXICO TECH UNIVERSITY RESEARCH PARK CORPORATION, priority 2021, dated 2026)
In brackets after ≈: the same amount, converted by molar mass. Where two headings read alike, the source gives them in different places.

What was measured:
[1] = test system: A. baumannii ATCC 1515; assay: Membrane depolarization detected by DiOC2(3); assay type: cell-based; conditions: 1xMIC; 20 μM CCCP; 25 minutes
[2] = test system: A. baumannii ATCC BAA-1797; assay: MIC on A. baumannii ATCC BAA-1797; assay type: cell-based
Procedure: A. baumannii: A. baumannii ATCC BAA-1797 was grown from a glycerol stock by placing a small volume of cells onto a MHA plate. The MHA plate was incubated overnight at 37° C. A single colony was used to inoculate MHB to obtain a bacterial broth suspension. The MHB broth suspension was grown at 37° C. on a rotary shaking incubator (100 rpm) for 12 hours. The bacterial cell concentration was adjusted to ˜5×10^5 CFU/mL in MHB or MHB+10%, 20% or 40% FBS using OD at 595 nm. 500 μL aliquots of the adjusted bacterial cell suspension were placed into borosilicate glass tubes. The cell suspensions were treated with a compound of interest, and the treatments were serially diluted two-fold. The culture tubes were incubated for 18 hours at 37° C. Efficacy was either assessed visually or by adding 10% v/v MTT (5 mg/mL stock) after the 18 hour incubation period. The cell suspensions were subsequently incubated for 10 minutes to allow the MTT reagent to carry out the colorimetric reaction. The OD was read at 595 nm.

[3] = test system: MRSA ATCC BAA-44; assay: MIC on MRSA ATCC BAA-44; assay type: cell-based, S. aureus; conditions: for MIC: Staphylococcus aureus
Procedure: MRSA BAA-44: MRSA ATCC BAA-44 was grown from a glycerol stock by placing a small volume of cells onto a Mueller-Hinton agar plate (MHA). The MHA plate was incubated overnight at 37° C. A single colony was used to inoculate Mueller-Hinton broth (MHB) to obtain a bacterial broth suspension. The MHB broth suspension was grown at 37° C. on a rotary shaking incubator (100 rpm) for 12 hours. The bacterial cell concentration was adjusted to ˜5×10^5 colony forming units per milliliter (CFU/mL) in MHB−/+10, 20, or 40% FBS using optical density (OD) at 595 nm. 500 μL aliquots of the adjusted bacterial cell suspension were placed into borosilicate glass tubes. The cell suspensions were treated with 100 μM compound of interest and serially diluted two-fold. The culture tubes were incubated for 18 hours at 37° C. Efficacy was either assessed visually or by adding 10% v/v MTT (5 mg/mL stock) after the 18 hour incubation period, where the cell suspensions were subsequently incubated for 10 minutes to allow the MTT reagent to carry out the colorimetric reaction.

[4] = test system: RecA-GFP fusion protein in E. coli MG1655; assay: Inhibition of norfloxacin-triggered RecA-GFP induction in E. coli MG1655; assay type: cell-based; conditions: for killing of E. coli: PME or norfloxacin 30 minutes, then compound, 3.5 hours; for SOS response (RecA-GFP induction): norfloxacin-triggered, sub-potent Polymixin E to facilitate entry
Procedure: An increase in DNA damage-induced RecA protein expression is required for identification and repair of DNA lesions. LexA-repressed transcription of a norfloxacin-triggered SOS response was measured by detecting an increase in RecA-GFP fusion protein fluorescence in an E. coli recombinant model. The compounds of the disclosure inhibited RecA-GFP induction and presumably, the concurrent SOS response. Inhibition of RecA-GFP expression correlated with an increase in cell death, most likely as a result of ALD activation. Sub-potent concentrations of Polymixin E were used to facilitate entry of the compounds into cells.
E. coli MG1655 was grown from a glycerol stock by placing a small volume of cells onto a MHA plate. The MHA plate was incubated overnight at 37° C. A single colony was subsequently used to inoculate MHB+10 μg/mL kanamycin to obtain a bacterial broth suspension. This was grown in at 37° C. on a rotary shaking incubator (100 rpm) for 12 hours. The bacterial cell concentration was adjusted to ˜5×10^5 colony forming units per milliliter (CFU/mL) in MHB using optical density at 595 nm. Treated cells with polymyxin E (PME) or norfloxacin (in μg/ml) at indicated concentrations for 30 minutes at 37° C. and then added a compound of the disclosure at indicated micromolar concentrations. Incubated for 3.5 hours at 37° C. Cell samples were read on the flow cytometer to detect (green fluorescent) RLU RecA expression and/or shutdown.
E. coli MG1655 was grown from a glycerol stock by placing a small volume of cells onto a MHA plate. The MHA plate was incubated overnight at 37° C. A single colony was subsequently used to inoculate MHB+10 μg/mL kanamycin to obtain a bacterial broth suspension. The MHB broth suspension was grown at 37° C. on a rotary shaking incubator (100 rpm) for 12 hours. The bacterial cell concentration was adjusted to ˜5×10^5 CFU/mL in MHB using OD at 595 nm.
Cells were treated with 0.03 μg/mL and 0.06 μg/mL norfloxacin for 30 minutes at 37° C. Then, 100 μM of the compounds were added. The cells were incubated for 3.5 hours at 37° C. 200 μL aliquots were removed and read by a flow cytometer to detect RecA production and/or shutdown. The cells were incubated for an additional 18 hours at 37° C. to assess overall toxicity.

[5] = test system: S. aureus; assay: Evolution of resistance in S. aureus over 32 days; assay type: cell-based; conditions: for MIC: Staphylococcus aureus; for development of resistance (increase in MIC): 32 days of sub-inhibitory exposure
Description: Over a period of 32 days, S. aureus cells were exposed to sub-inhibitory concentrations of the indicated compound, norfloxacin, or oxacillin and sub-cultured at the newly emerged, sub-inhibitory concentration.

[6] = 0% FBS, read-out: MIC (μM) in MDR A. baumannii ATCC 1797 0% FBS
[7] = Acinetobacter baumannii, ATCC 1797 / ATCC BAA-1797, 0% FBS, read-out: MIC (μM) in MDR A. baumannii ATCC 1797 0% FBS
[8] = Acinetobacter baumannii, ATCC 1797 / ATCC BAA-1797, read-out: MIC (μM) in MDR A. baumannii ATCC 1797 40% FBS, 40% FBS
[9] = no serum (note in the cell), read-out: MIC (μM) in MRSA BAA-44
[10] = 10% FBS, read-out: MIC (μM) in MRSA BAA-44 10% FBS
[11] = in 40% FBS (note in the cell), read-out: MIC (μM) in MRSA BAA-44
[12] = 0 h, read-out: Initial MIC Day 0

Row | SMILES | MIC [2, 7] | MIC [2, 8] | MIC [3, 9] | MIC [5, 12] | MIC ([5]; read-out: Final MIC Day 32) | further results
1 | N#CC(C#N)=NNc1cccc(Cl)c1 [CCCP, reference compound] |  |  |  |  |  | cell membrane depolarization [1]: depolarized the cell membrane
2 | Brc1ccc(N/N=C/c2c[nH]c3cccc(OCc4ccccc4)c23)cc1 [Compound 34, (E)-4-(benzyloxy)-3-((2-(4-bromophenyl)hydrazineylidene)methyl)-1H-indole] |  |  |  |  |  | MIC [2, 6]: 3 µM (≈ 1.26 µg/mL); MIC (μM) in MDR A. baumannii ATCC 1797 40% FBS [2]: 50 µM (≈ 21 µg/mL); MIC (μM) in MRSA BAA-44 ([3]; no serum (note in the cell)): 25 (no serum) μM
3 | CC(=O)O.Nc1ccc(N/N=C/c2c[nH]c3cccc(OCc4ccccc4)c23)cc1 [Compound 39, (E)-1-(4-aminophenyl)-2-((4-(benzyloxy)-1H-indol-3-yl)methylene)hydrazin-1-ium acetate] |  |  |  |  |  | MIC [2, 6]: >100 µM; MIC (μM) in MDR A. baumannii ATCC 1797 40% FBS [2]: >100 µM; MIC (μM) in MRSA BAA-44 ([3]; no serum (note in the cell)): 50 (no serum) μM
4 | C(=N\Nc1ncccn1)/c1c[nH]c2cccc(OCc3ccccc3)c12.O=C(O)C(F)(F)F [Compound 40, (E)-2-((4-(benzyloxy)-1H-indol-3-yl)methylene)-1-(pyrimidin-2-yl)hydrazin-1-ium 2,2,2-trifluoroacetate] |  |  |  |  |  | MIC [2, 6]: >100 µM; MIC (μM) in MDR A. baumannii ATCC 1797 40% FBS [2]: >100 µM; MIC [3, 10]: > 100 µM
5 | Cl.NCCCC(=O)Oc1cccc2[nH]cc(/C=N/Nc3ccc(F)cc3)c12 [Compound 42, (E)-4-((3-((2-(4-fluorophenyl)hydrazineylidene)methyl)-1H-indol-4-yl)oxy)-4-oxobutan-1-aminium chloride] |  |  |  |  |  | MIC [2, 6]: <25 µM; MIC (μM) in MDR A. baumannii ATCC 1797 40% FBS [2]: >100 µM; MIC ([3]; in FBS (note in the cell, percentage not given), read-out: MIC (μM) in MRSA BAA-44): 100 µM; MIC (μM) in MRSA BAA-44 ([3]; no serum (note in the cell)): <25 in no μM
6 | Brc1ccc(/N=N/c2c[nH]c3ccccc23)cc1 [Compound 47, (E)-3-((4-bromophenyl)diazenyl)-1H-indole] |  |  |  | 4 µM | 4 µM | killing of E. coli [4]: killed E. coli; SOS response (RecA-GFP induction) [4]: inhibited the SOS response
7 | Clc1ccc(/N=N/c2c[nH]c3ccccc23)cc1 [Compound 48, (E)-3-((4-chlorophenyl)diazenyl)-1H-indole] |  |  |  | 8 µM | 8 µM | 
8 | Clc1ccc(Oc2c(-c3ccc(Cl)cc3)[nH]c3ccccc23)cc1 [Compound 49, 3-(4-chlorophenoxy)-2-(4-chlorophenyl)-1H-indole] |  |  |  | 2 µM | 1 µM | killing of E. coli [4]: killed E. coli; SOS response (RecA-GFP induction) [4]: inhibited the SOS response
9 | Clc1ccc(Oc2c(-c3ccc(Cl)cc3)[nH]c3ccc(Cl)cc23)cc1 [Compound 50, 5-chloro-3-(4-chlorophenoxy)-2-(4-chlorophenyl)-1H-indole] |  |  |  | 0.25 to 0.5 µM | > 32 µM | 
10 | CCn1cc(C(=O)O)c(=O)c2cc(F)c(N3CCNCC3)cc21 [Norfloxacin, reference compound] |  |  |  | 2 µg/mL | > 100 µg/mL | development of resistance (increase in MIC) [5]: Dramatic resistance
11 | Cc1onc(-c2ccccc2)c1C(=O)N[C@@H]1C(=O)N2[C@@H]1SC(C)(C)[C@@H]2C(=O)O [Oxacillin, reference compound] |  |  |  | 0.25 µg/mL | > 200 µg/mL | development of resistance (increase in MIC) [5]: Dramatic resistance

Now from value to compound, other results behind:

Row | MIC [2, 7] | MIC [2, 8] | MIC [3, 9] | SMILES | MIC [5, 12] | MIC ([5]; read-out: Final MIC Day 32) | further results
12 | > 100 µM | > 100 µM | 50 µM (≈ 17.4 µg/mL) | C(=N\NC1=NCCCN1)/c1c[nH]c2cccc(OCc3ccccc3)c12 [Compound 35, (E)-2-(2-((4-(benzyloxy)-1H-indol-3-yl)methylene)hydrazineyl)-3,4,5,6-tetrahydropyrimidin-1-ium 2,2,2-trifluoroacetate] |  |  | 
13 | > 100 µM | > 100 µM | > 100 µM | C(=N\Nc1ncccn1)/c1c[nH]c2cccc(OCc3ccccc3)c12 [Compound 36, (E)-4-(benzyloxy)-3-((2-(pyrimidin-2-yl)hydrazineylidene)methyl)-1H-indole] |  |  | 
14 | > 100 µM | > 100 µM | 12.5 µM (≈ 5.12 µg/mL) | FC(F)(F)c1ccc(N/N=C/c2c[nH]c3cccc(OCc4ccccc4)c23)cc1 [Compound 37, (E)-4-(benzyloxy)-3-((2-(4-(trifluoromethyl)phenyl) hydrazineylidene)methyl)-1H-indole] |  |  | 
15 | > 100 µM | > 100 µM | > 100 µM | Nc1ccc(N/N=C/c2c[nH]c3cccc(OCc4ccccc4)c23)cc1 [Compound 38, (E)-4-(2-((4-(benzyloxy)-1H-indol-3-yl)methylene)hydrazineyl) benzenaminium chloride] |  |  | 
16 | 12.5 µM (≈ 4.43 µg/mL) | > 100 µM |  | NCCCC(=O)Oc1cccc2[nH]cc(/C=N/Nc3ccc(F)cc3)c12 [Compound 41, (E)-3-((2-(4-fluorophenyl)hydrazineylidene)methyl)-1H-indol-4-yl 4-aminobutanoate] |  |  | MIC (μM) in MRSA BAA-44 ([3]; no serum (note in the cell)): 100 no serum μM
17 | 6 µM (≈ 2.83 µg/mL) | > 100 µM | 6 µM (≈ 2.83 µg/mL) | Brc1ccc2c(N/N=C/c3c[nH]c4cccc(OCc5ccccc5)c34)ccnc2c1 [Compound 43, (E)-4-(2-((4-(benzyloxy)-1H-indol-3-yl)methylene)hydrazineyl)-7-bromoquinoline] |  |  | MIC ([3]; 18 h, read-out: MIC in the presence of 40% FBS, MRSA ATCC BAA-44, 40% FBS): > 100 µM; MIC ([3]; MRSA ATCC BAA-44, absence of serum, read-out: MIC in the absence of serum): 6 µM (≈ 2.83 µg/mL); MIC [3, 11]: > 100 µM
18 | < 100 µM |  |  | Cn1cc(/C=N/Nc2ccc(F)cc2)c2c(OCc3ccccc3)cccc21 [Compound 44, (E)-4-(benzyloxy)-3-((2-(4-fluorophenyl)hydrazineylidene)methyl)-1-methyl-1H-indole] |  |  | MIC [3, 10]: < 100 µM
19 | 25 µM (≈ 10.9 µg/mL) | 50 µM (≈ 21.7 µg/mL) | 25 µM (≈ 10.9 µg/mL) | Cn1cc(/C=N/Nc2ccc(Br)cc2)c2c(OCc3ccccc3)cccc21 [Compound 45, (E)-4-(benzyloxy)-3-((2-(4-bromophenyl)hydrazineylidene)methyl)-1-methyl-1H-indole] |  |  | MIC [3, 11]: > 100 µM
